According to patent publication US11732143B2, “Identification and characterization of novel corrosion inhibitor molecules” (ECOLAB USA INC., priority 2015, dated 2023):

System: live bacteria
Assay: Biocide efficiency, fluorescence detection of ATP, percentage kill / viable bacteria
Assay type: cell-based
Settings: for biocidal efficiency in conjunction with biocide 4: 120 ppm corrosion inhibitor + 100 ppm biocide 4 (glutaraldehyde); for biocidal efficiency of the corrosion inhibitor by itself (viable microorganisms): 120 ppm corrosion inhibitor alone
Method: Biocidal efficiency of the biocide and biocide in conjunction with corrosion inhibitors were analyzed using fluorescence to indirectly detect the amount of ATP in a given sample. ATP provides a direct correlation to live bacteria (1fg of ATP=1 cell). Through a standard curve, it is the possible to translate the amount of ATP in a given sample to the number of cells/mL in a given sample. Percentage kill was calculated by normalizing the detected bacterial numbers in a biocide or a biocide and corrosion inhibitor treated sample to untreated sample.

Row | Substance | biocidal efficiency in conjunction with biocide 4 | biocidal efficiency of the corrosion inhibitor by itself (viable microorganisms)
1 | 2-hydroxylethyl-N-methylbutane-1-sulphonamide | does not have any biocidal properties | does not have any biocidal properties
2 | Cocoamphodiproprionate sodium salt | modest increase in the biocidal properties of biocide 4 | not efficient in reducing the number of viable microorganisms by itself
